Common to all, as to assay type: cell-based
One assay has as its target T1, rCX3CR1 (Rattus norvegicus, UniProt P35411).
T1 construct: expressed in transfected cells; stably expresses a Ca2+ sensitive photo-protein
T1 sequence (P35411 1-354): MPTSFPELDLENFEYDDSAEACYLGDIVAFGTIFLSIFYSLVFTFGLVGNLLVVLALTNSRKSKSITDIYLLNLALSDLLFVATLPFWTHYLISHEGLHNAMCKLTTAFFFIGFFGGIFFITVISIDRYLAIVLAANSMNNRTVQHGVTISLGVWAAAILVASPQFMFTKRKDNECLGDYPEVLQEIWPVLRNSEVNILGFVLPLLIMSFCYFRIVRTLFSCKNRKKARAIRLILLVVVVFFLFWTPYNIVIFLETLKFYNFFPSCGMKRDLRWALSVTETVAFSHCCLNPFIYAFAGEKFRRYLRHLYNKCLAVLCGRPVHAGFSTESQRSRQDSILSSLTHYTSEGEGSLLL
The assay can be described thus: Ga16 assay, CX3CR1 agonism, Ca2+ sensitive photo-protein readout (FLIPRTETRA). Particulars: rat CX3CR1 cell line. Put shortly: (§1)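 Cells expressing human, mouse or rat CX3CR1 with a stably expressed Ca2+-sensitive photoprotein were loaded with 10 μM coelenterazine in tyrode buffer pH 7.4 for 3 h at room temperature. Agonist-mode luminescence kinetics were recorded for 90 s after compound injection on FLIPRTETRA. Dose-response runs were done in quadruplicate, with fractalkine as the reference agonist.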

For a further assay, the target named is T2, mCX3CR1 (Mus musculus, UniProt Q9Z0D9).
T2 construct: expressed in transfected cells; stably expresses a Ca2+ sensitive photo-protein
T2 sequence (Q9Z0D9 1-354): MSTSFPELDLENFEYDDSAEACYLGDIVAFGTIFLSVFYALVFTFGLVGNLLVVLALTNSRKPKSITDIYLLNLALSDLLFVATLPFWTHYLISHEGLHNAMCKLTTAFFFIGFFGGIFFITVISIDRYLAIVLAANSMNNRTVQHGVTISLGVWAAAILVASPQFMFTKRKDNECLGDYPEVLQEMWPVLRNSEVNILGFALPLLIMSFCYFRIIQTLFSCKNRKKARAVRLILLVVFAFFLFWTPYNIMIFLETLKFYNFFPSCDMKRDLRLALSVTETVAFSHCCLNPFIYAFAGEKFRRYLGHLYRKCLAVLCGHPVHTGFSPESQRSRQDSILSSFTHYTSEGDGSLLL
Described as above. Particulars: mouse CX3CR1 cell line. Put shortly:
as §1

Assay [1] addresses T3, hCX3CR1 (Homo sapiens, UniProt P49238).
T3 sequence (P49238 1-355): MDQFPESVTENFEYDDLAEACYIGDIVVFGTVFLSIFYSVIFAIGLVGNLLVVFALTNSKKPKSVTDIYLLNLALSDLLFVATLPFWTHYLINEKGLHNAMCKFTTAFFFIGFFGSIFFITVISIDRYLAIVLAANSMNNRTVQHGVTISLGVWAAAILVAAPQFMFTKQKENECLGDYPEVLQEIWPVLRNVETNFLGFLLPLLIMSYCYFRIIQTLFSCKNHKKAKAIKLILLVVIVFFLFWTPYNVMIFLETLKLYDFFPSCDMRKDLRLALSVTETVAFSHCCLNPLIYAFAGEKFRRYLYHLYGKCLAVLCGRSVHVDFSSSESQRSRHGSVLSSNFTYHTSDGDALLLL
Described as above. Also on record: expressed in transfected cells; stably expresses a Ca2+ sensitive photo-protein. Particulars: human CX3CR1 cell line. The gist of the method:
as §1

Assay [2] deals with T3, hCX3CR1. The experiment in a line: ChAMPion assay (CHO ChAMPion/CX3CR1 K1.6, cAMP/CNG channel, photoprotein luminescence). Further details: expressed in transfected cells; stably expresses a Ca2+ sensitive photo-protein. As to conditions: ChAMPion assay, CHO ChAMPion/CX3CR1 K1.6, Forskolin 3 μM; read-out: hCX3CR1 agonism EC50. As to the method:
Buffers and reagents. PBS (D-PBS without calcium and magnesium; EuroClone); Trypsin (Trypsin 0.05%, EDTA 0.02% in PBS; EuroClone); DMSO (Sigma); Tyrode buffer Ca^2+ free: in-house solution (130 mM NaCl, 5 mM KCl, 1 mM MgCl^2, 5 mM NaHCO3, 20 mM HEPES (pH 7.4); sterile filtered and autoclaved); Tyrode buffer 10 mM Ca^2+: in-house solution (130 mM NaCl, 5 mM KCl, 10 mM CaCl2), 1 mM MgCl2, 5 mM NaHCO3, 20 mM HEPES, in water at pH 7.4, sterile filtered); Coelenterazine, native (Biosynth); stock 10 mM; Agonist: Recombinant Human Fractalkine (CX3CL1) (PeproTech); stock: 10 μM in standard Tyrode buffer/BSA 01%; stored at −20° C.
Cell line. The final clone for the hCX3CR1 assay was CHO ChAMPion/CX3CR1 K1.6. ChAMPion technology is based on the co-expression of a Ca^2+ sensitive photoprotein and of a cyclic nucleotide-gated (CNG) channel acting as a cAMP biosensor in a CHO-K1 cell line. CNG channels are non-selective ligand gated cation channels that can be opened by the direct interaction with either cAMP or cGMP, at the intracellular C-terminus site of the channel. Channel opening allows the flux of extracellular calcium into the cell cytoplasm and its transient elevation can be recorded by means of several different calcium indicators. In the chAMPion system, the CNG channel has been modified to display sensitivity to cAMP levels in the physiological range. In addition the calcium influx through the opened channel is immediately detected by the recording of the photoprotein-emitted flash type luminescence signal.
The chAMPion cell line system can monitor the activation of transfected Gαi-coupled receptors, which elicit changes in 3,‘5’-adenosine cyclic monophosphate (cAMP) levels, which in turn is responsible for CNG opening and consequent Ca^2+ influx.
Assay protocol. Experiments were performed in 384 MTP format. Cells were seeded at 10,000 cells/well in 25 μL/well complete growth medium without selection antibiotics in 384-well plates. Twenty-four hours later, cells were assayed for the response to various compounds using the Ca^2+ sensitive photo-protein stably expressed in the cells as readout.
The experiment was performed in a 384-well format according to the following procedure: • 24h after seeding, pre-incubate the cells at room temperature for 1 hour. • Then remove the culture medium. • Load cells with 20 μL/well of Ca^2+ free tyrode buffer+ceolenterazine 5 μM. • Incubate cell plates for 4 hours at RT. • 10 μl/well of 3× concentrated compounds in Ca^2+ free tyrode buffer+Forskolin 9 μM (final Forskolin concentration=3 μM) are applied to the cells (at 10 μl/s). Ten minutes later a second injection is performed: 10 μl/well of Ca^2+ free tyrode buffer+BSA 0.04% (final BSA concentration=0.01%). Twenty minutes later a third injection is performed: 20 μl/well of 10 mM Ca^2+ tyrode buffer (final Ca^2+ concentration was 3.3 mM) and luminescence is recorded for 90 seconds.
Data from FLIPRTETRA measurements are analyzed with the Genedata Screener© software.

In another assay the test system is primary human monocytes. The experiment in a line: Chemotaxis assay, transwell migration of primary human monocytes. As to conditions: 4 hours, CellTiter-Glo, FIG. 2. As to the method: Primary Human Monocytes Migrate Along a Chemotactic Gradient towards CX3CR1 Agonists
The chemotaxis assay assesses the CX3CR1-dependent migration of primary human monocytes towards fractalkine and active CX3CR1 agonists. To determine the migration index, monocytes were positively selected from freshly isolated human PBMCs and seeded at 50,000 cells per insert, on the upper chamber of a transwell plate with a pore size of 5 μm. […] Monocytes were allowed to migrate for 4 hours, and subsequently detected in the lower chamber with the CellTiter-Glo Assay, which measures metabolically active cells.

Consider `CCC(CC)(CNC(=O)c1cc2c(s1)CCCCCC2)CN1CCCC1` [Example 9, N-[2-ethyl-2-(pyrrolidin-1-ylmethyl)butyl]-4,5,6,7,8,9-hexahydrocycloocta[b]thiophene-2-carboxamide], for which the EC50 on rCX3CR1 is 14.9 µM; on mCX3CR1, 11.8 µM; at hCX3CR1 [1], 11 µM; at hCX3CR1 [2] it was 4.1 µM.

In the case of `O=C(NCC1(CN2CCCC2)CCOCC1)c1cc2c(s1)CCCCCC2` [Example 20, N-[[4-(pyrrolidin-1-ylmethyl)oxan-4-yl]methyl]-4,5,6,7,8,9-hexahydrocycloocta[b]thiophene-2-carboxamide], the EC50 is 19.2 µM at rCX3CR1, 20.9 µM on mCX3CR1, 8.8 µM at hCX3CR1 [1] and 1.7 µM on hCX3CR1 [2].

With `CN(C)CC1(CNC(=O)c2cc3c(s2)CCCCCC3)CCOCC1` [Example 19, N-[[4-[(dimethylamino)methyl]oxan-4-yl]methyl]-4,5,6,7,8,9-hexahydrocycloocta[b]thiophene-2-carboxamide], the EC50 at rCX3CR1 was determined as 27.9 µM; on mCX3CR1, 30.6 µM; on hCX3CR1 [1], 14.3 µM; on hCX3CR1 [2], 1.9 µM.

As for `CC(CNC(=O)c1cc2c(s1)CCCCCC2)CN(C)C` (centres unmarked) [Example 3, N-[3-(dimethylamino)-2-methylpropyl]-4,5,6,7,8,9-hexahydrocycloocta[b]thiophene-2-carboxamide], the EC50 on rCX3CR1 turned out to be 77.2 µM; at mCX3CR1, 75.1 µM; at hCX3CR1 [1], 21 µM; on hCX3CR1 [2], 30 µM.

For the molecule `O=C(NCC1(CN2CCC2)CCCC1)c1cc2c(s1)CCCCCC2` [Example 14, N-[[1-(azetidin-1-ylmethyl)cyclopentyl]methyl]-4,5,6,7,8,9-hexahydrocycloocta[b]thiophene-2-carboxamide], the half-maximal effective concentration (EC50) is 9.3 µM on rCX3CR1, 15.2 µM on mCX3CR1, 9.1 µM at hCX3CR1 [1] and 1.6 µM on hCX3CR1 [2].

Take `O=C(NCC1(CN2CCCC2)CCC1)c1cc2c(s1)CCCCCCC2` [Example 26, N-[[1-(pyrrolidin-1-ylmethyl)cyclobutyl]methyl]-5,6,7,8,9,10-hexahydro-4H-cyclonona[b]thiophene-2-carboxamide]: the EC50 at rCX3CR1 was 46.7 µM; on mCX3CR1, 58.1 µM; on hCX3CR1 [1] it was 27.3 µM; at hCX3CR1 [2], 4.3 µM.

For `CN(C)CC1(CNC(=O)c2cc3c(s2)CCCCCC3)CCCCC1` [Example 22, N-[[1-[(dimethylamino)methyl]cyclohexyl]methyl]-4,5,6,7,8,9-hexahydrocycloocta[b]thiophene-2-carboxamide], the EC50 on rCX3CR1 was determined as 13.7 µM; on mCX3CR1, 15.1 µM; at hCX3CR1 [1], 11.5 µM; on hCX3CR1 [2], 1.3 µM.

B1: fractalkine: recombinant human fractalkine (CX3CL1), large membrane-anchored or secreted cytokine, ligand of CX3CR1 (protein, UniProt P78423 25-397, looked up)
Fractalkine: QHHGVTKCNITCSKMTSKIPVALLIHYQQNQASCGKRAIILETRQHRLFCADPKEQWVKDAMQHLDRQAAALTRNGGTFEKQIGEVKPRTTPAAGGMDESVVLEPEATGESSSLEPTPSSQEAQRALGTSPELPTGVTGSSGTRLPPTPKAQDGGPVGTELFRVPPVSTAATWQSSAPHQPGPSLWAEAKTSEAPSTQDPSTQASTASSPAPEENAPSEGQRVWGQGQSPRPENSLEREEMGPVPAHTDAFQDWGPGSMAHVSVVPVSSEGTPSREPVASGSWTPKAEEPIHATMDPQRLGVLITPVPDAQAATRRQAVGLLAFLGLLFCLGVAMFTYQSLQGCPRKMAGEMAEGLRYIPRSCGSNSYVLVPV
Take B1: the “migration of primary human monocytes towards substance (chemotaxis)” value in the assay with primary human monocytes was “monocytes migrated towards fractalkine”.

The record behind these values is patent US12258337B2, “Bicyclic CX3CR1 receptor agonists” (Board of Regents, The University of Texas System, priority 2019, dated 2025).
